Biological target: T1, human LXRβ (Homo sapiens, UniProt P55055)
T1 construct: expressed in transfected cells; host or cells: HEK293 cells (ATCC CRL-1573), transient transfection with pFA-hLXRβ/GAL4 and pUAS
T1 sequence (P55055 222-460 limits assumed): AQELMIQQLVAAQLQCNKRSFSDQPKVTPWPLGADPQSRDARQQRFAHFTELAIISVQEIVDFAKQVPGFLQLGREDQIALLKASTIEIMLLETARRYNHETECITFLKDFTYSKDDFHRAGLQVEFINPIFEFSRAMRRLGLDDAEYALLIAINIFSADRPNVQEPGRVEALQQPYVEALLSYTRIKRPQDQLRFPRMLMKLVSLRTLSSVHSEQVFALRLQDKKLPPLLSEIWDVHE
Assay: Assay for Transcriptional Activity of LXRβ (GAL4-hLXRβ LBD luciferase reporter, transient transfection)
Type: cell-based
Conditions: HEK293 cells transfected with pFA-hLXRβ/GAL4 and pUAS, 24 hours; for Emax: fold value in comparison with the control (DMSO-treated group); for EC50: increase of transcriptional activity of LXRβ, average of three independent tests
Method in brief: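 EC50 values, averaged over three independent runs, come from a four-parameter fit of 9-point half-log curves spanning 0.01–50 μM. Luciferase output was read in lysed HEK293 cells 24 h after dosing at 37 °C, following transient transfection with a GAL4-human LXRβ LBD fusion plus GAL4-responsive reporter.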

SMILES	Emax [fold]	EC50 [nM]
CCS(=O)(=O)N1CCCN(c2ccc(C3CC(C(O)(C(F)(F)F)C(F)(F)F)=NN3c3ccccc3Cl)cc2)CC1 (stereo not drawn) [Example 323, 1-(2-chloro-phenyl)-5-[4-(4-ethanesulfonyl-homopiperazin-1-yl)-phenyl]-3-[di-(trifluoromethyl)-hydroxy-methyl]-4,5-dihydro-1H-pyrazole]	54	344
CS(=O)(=O)c1cccc(-c2cccc(C3CC(C(F)(F)C(F)(F)F)=NN3c3ccccc3Cl)n2)c1 (stereo not drawn) [Example 157, 1-(2-chloro-phenyl)-5-[2-(3-methanesulfonyl-phenyl)-pyridin-6-yl]-3-pentafluoroethyl-4,5-dihydro-1H-pyrazole]	96	397
CS(=O)(=O)c1ccc(-c2ccc(C3CC(C(O)(C(F)(F)F)C(F)(F)F)=NN3c3ccccc3Cl)cc2)cc1 (stereo not drawn) [Example 244, 1-(2-chloro-phenyl)-5-[4′-(methanesulfonyl)-biphenyl-4-yl]-3-[di-(trifluoromethyl)-hydroxy-methyl]-4,5-dihydro-1H-pyrazole]	100	298
C[S+]([O-])c1cccc(-c2ccc(C3CC(C(O)(C(F)(F)F)C(F)(F)F)=NN3c3ccccc3Cl)c(F)c2)c1 (stereo not drawn) [Example 345, 1-(2-chloro-phenyl)-5-(3-fluoro-3′-methanesulfinyl-biphenyl-4-yl)-3-[di-(trifluoromethyl)-hydroxy-methyl]-4,5-dihydro-1H-pyrazole]	42	71
CS(=O)(=O)N1CC=C(c2ccc(C3CC(C(O)(C(F)(F)F)C(F)(F)F)=NN3c3ccccc3Cl)cn2)CC1 (stereo not drawn) [Example 358, 1-(2-chloro-phenyl)-5-[6-(1-methanesulfonyl-1,2,3,6-tetrahydropyridin-4-yl)-pyridin-3-yl]-3-[di-(trifluoromethyl)-hydroxy-methyl]-4,5-dihydro-1H-pyrazole]	90	719
CC(=O)Nc1cccc(-c2ccc(C3CC(C(O)(C(F)(F)F)C(F)(F)F)=NN3c3ccccc3Cl)cc2)c1 (stereo not drawn) [Example 309, 5-(3′-acetaminobiphenyl-4-yl)-1-(2-chloro-phenyl)-3-[di-(trifluoromethyl)-hydroxy-methyl]-4,5-dihydro-1H-pyrazole]	84	1940
OC(C1=NN(c2ccccc2Cl)C(c2ccc(-c3cc(F)c(-n4cncn4)cc3F)cc2)C1)(C(F)(F)F)C(F)(F)F (stereo not drawn) [Example 287, 1-(2-chloro-phenyl)-5-[2′,5′-difluoro-4′-(1H-1,2,4-triazol-1-yl)-biphenyl-4-yl]-3-[di-(trifluoromethyl)-hydroxy-methyl]-4,5-dihydro-1H-pyrazole]	47	519
Cc1ncccc1-c1cccc(C2CC(C(F)(F)C(F)(F)F)=NN2c2ccc(F)cc2F)c1 (stereo not drawn) [Example 71, 1-(2,4-difluoro-phenyl)-5-(3-(2-methyl-pyridin-3-yl)-phenyl)-3-pentafluoroethyl-4,5-dihydro-1H-pyrazole]	20	1230
CS(=O)(=O)N1CC=C(c2cc(C3CC(C(F)(F)C(F)(F)F)=NN3c3ccc(F)cc3F)ccn2)CC1 (stereo not drawn) [Example 191, 1-(2,4-difluoro-phenyl)-5-[2-(1-methanesulfonyl-1,2,3,6-tetrahydropyridin-4-yl)-pyridin-4-yl]-3-pentafluoroethyl-4,5-dihydro-1H-pyrazole]	50	6700
CC(=O)N1CC=C(c2cccc(C3CC(C(O)(C(F)(F)F)C(F)(F)F)=NN3c3ccccc3Cl)c2)CC1 (stereo not drawn) [Example 231, 5-[3-(1-acetyl-1,2,3,6-tetrahydropyridin-4-yl)-phenyl]-1-(2-chloro-phenyl)-3-[di-(trifluoromethyl)-hydroxy-methyl]-4,5-dihydro-1H-pyrazole]	107	8
Cc1cccc(-c2ccc(C3CC(C(O)(C(F)(F)F)C(F)(F)F)=NN3c3ccccc3Cl)cc2)n1 (stereo not drawn) [Example 276, 1-(2-chloro-phenyl)-5-[4-(6-methyl-pyridin-2-yl)-phenyl]-3-[di-(trifluoromethyl)-hydroxy-methyl]-4,5-dihydro-1H-pyrazole]	87	1240
O=S(=O)(C1CC1)N1CC=C(c2ccc(C3CC(C(O)(C(F)(F)F)C(F)(F)F)=NN3c3ccccc3Cl)cn2)CC1 (stereo not drawn) [Example 359, 1-(2-chloro-phenyl)-5-[6-(1-cyclopropanesulfonyl-1,2,3,6-tetrahydropyridin-4-yl)-pyridin-3-yl]-3-[di-(trifluoromethyl)-hydroxy-methyl]-4,5-dihydro-1H-pyrazole]	92	630
COc1ccc(-c2ccc(C3CC(C(O)(C(F)(F)F)C(F)(F)F)=NN3c3ccccc3Cl)cc2)cn1 (stereo not drawn) [Example 260, 1-(2-chloro-phenyl)-5-[4-(6-methoxy-pyridin-3-yl)-phenyl]-3-[di-(trifluoromethyl)-hydroxy-methyl]-4,5-dihydro-1H-pyrazole]	47	1870
O=S(=O)(C1CC1)N1CCN(c2ccnc(C3CC(C(F)(F)C(F)(F)F)=NN3c3ccc(F)cc3F)c2)CC1 (stereo not drawn) [Example 184, 1-(2,4-difluoro-phenyl)-5-[4-(4-cyclopropanesulfonyl-piperazin-1-yl)-pyridin-2-yl]-3-pentafluoroethyl-4,5-dihydro-1H-pyrazole]	81	2840
CC(C)(C)OC(=O)N1CC=C(c2ccc(C3CC(C(O)(C(F)(F)F)C(F)(F)F)=NN3c3ccccc3Cl)c(F)c2)CC1 (stereo not drawn) [Example 342, 1-(2-chloro-phenyl)-5-[2-fluoro-4-(1-BOC-1,2,3,6-tetrahydropyridin-4-yl)-phenyl]-3-[di-(trifluoromethyl)-hydroxy-methyl]-4,5-dihydro-1H-pyrazole]	21	4070
COc1cccc(-c2ccc(C3CC(C(O)(C(F)(F)F)C(F)(F)F)=NN3c3ccccc3Cl)cn2)c1 (stereo not drawn) [Example 349, 1-(2-chloro-phenyl)-5-[6-(3-methoxy-phenyl)-pyridin-3-yl]-3-[di-(trifluoromethyl)-hydroxy-methyl]-4,5-dihydro-1H-pyrazole]	60	772
CS(=O)(=O)c1cccc(-c2ccc(C3CC(C(O)(C(F)(F)F)C(F)(F)F)=NN3c3ccc(F)cc3F)cc2)c1 (stereo not drawn) [Example 413, 1-(2,4-difluoro-phenyl)-5-[3′-methanesulfonyl-biphenyl-4-yl]-3-[di-(trifluoromethyl)-hydroxy-methyl]-4,5-dihydro-1H-pyrazole]	49	156
COc1ccc(-c2ccc(C3CC(C(O)(C(F)(F)F)C(F)(F)F)=NN3c3ccccc3Cl)cc2)c(Cl)c1 (stereo not drawn) [Example 255, 5-(2′-chloro-4′-methoxy-biphenyl-4-yl)-1-(2-chloro-phenyl)-3-[di-(trifluoromethyl)-hydroxy-methyl]-4,5-dihydro-1H-pyrazole]	58	1080
CS(=O)(=O)N1CC=C(c2cccc(N3N=C(C(O)(C(F)(F)F)C(F)(F)F)CC3c3ccccc3Cl)c2)CC1 (stereo not drawn) [Example 437, 5-(2-chloro-phenyl)-1-[3-(1-methylsulfonyl-1,2,3,6-tetrahydropyridin-4-yl)-phenyl]-3-[di-(trifluoromethyl)-hydroxy-methyl]-4,5-dihydro-1H-pyrazole]	13	932
CS(=O)(=O)c1ccc(-c2ccnc(C3CC(C(F)(F)C(F)(F)F)=NN3c3ccc(F)cc3F)c2)cc1 (stereo not drawn) [Example 174, 1-(2,4-difluoro-phenyl)-5-[4-(4-methanesulfonyl-phenyl)-pyridin-2-yl]-3-pentafluoroethyl-4,5-dihydro-1H-pyrazole]	119	543
CCOc1cccc(-c2ccc(C3CC(C(O)(C(F)(F)F)C(F)(F)F)=NN3c3ccc(F)cc3F)cc2)c1 (stereo not drawn) [Example 337, 5-(3′-ethoxy-biphenyl-4-yl)-1-(2,4-difluoro-phenyl)-3-[di-(trifluoromethyl)-hydroxy-methyl]-4,5-dihydro-1H-pyrazole]	80	1070
Cc1ccncc1-c1ccc(C2CC(C(O)(C(F)(F)F)C(F)(F)F)=NN2c2ccccc2Cl)cc1 (stereo not drawn) [Example 271, 1-(2-chloro-phenyl)-5-[4-(4-methyl-pyridin-3-yl)-phenyl]-3-[di-(trifluoromethyl)-hydroxy-methyl]-4,5-dihydro-1H-pyrazole]	45	547
CN(C)C(=O)N1CC=C(c2ccc(C3CC(C(O)(C(F)(F)F)C(F)(F)F)=NN3c3ccc(F)cc3F)cc2)CC1 (stereo not drawn) [Example 403, 1-(2,4-difluoro-phenyl)-5-[4-(1-dimethylcarbamoyl-1,2,3,6-tetrahydropyridin-4-yl)-phenyl]-3-[di-(trifluoromethyl)-hydroxy-methyl]-4,5-dihydro-1H-pyrazole]	22	1170
CN(C)S(=O)(=O)c1cccc(-c2ccc(C3CC(C(O)(C(F)(F)F)C(F)(F)F)=NN3c3ccccc3Cl)cc2)c1 (stereo not drawn) [Example 284, 1-(2-chloro-phenyl)-5-(3′-dimethylsulfamoyl-biphenyl-4-yl)-3-[di-(trifluoromethyl)-hydroxy-methyl]-4,5-dihydro-1H-pyrazole]	56	635
